Reference: PubChem BioAssay (NCI)
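A five-concentration, 48-hour dose response in 96-well plates underlies each endpoint, interpolated linearly between surrounding concentrations. The concentration for full growth arrest is given as TGI.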

Tests used:
Assay in all cases: NCI tumour cell line growth inhibition, 48 h
TK-10 renal = system: TK-10 renal
SF-268 CNS = system: SF-268 CNS
DLD-1 colon = system: DLD-1 colon
786-0 renal = system: 786-0 renal
KM20L2 colon = system: KM20L2 colon
SNB-75 CNS = system: SNB-75 CNS
K-562 leukemia = system: K-562 leukemia
M14 melanoma = system: M14 melanoma
U251 CNS = system: U251 CNS
UACC-62 melanoma = system: UACC-62 melanoma
SK-MEL-28 melanoma = system: SK-MEL-28 melanoma
EKVX NSCLC = system: EKVX NSCLC
MALME-3M melanoma = system: MALME-3M melanoma
LOX IMVI melanoma = system: LOX IMVI melanoma
OVCAR-8 ovarian = system: OVCAR-8 ovarian
UACC-257 melanoma = system: UACC-257 melanoma
DMS 114 small cell lung = system: DMS 114 small cell lung
DMS 273 small cell lung = system: DMS 273 small cell lung
HOP-92 NSCLC = system: HOP-92 NSCLC
HT29 colon = system: HT29 colon
NCI-H23 lung = system: NCI-H23 lung
A549 NSCLC = system: A549 NSCLC
RXF 393 renal = system: RXF 393 renal
SR leukemia = system: SR leukemia
MOLT-4 leukemia = system: MOLT-4 leukemia
OVCAR-5 ovarian = system: OVCAR-5 ovarian
SF-295 CNS = system: SF-295 CNS
NCI-H460 lung = system: NCI-H460 lung
HL-60(TB) leukemia = system: HL-60(TB) leukemia
ACHN renal = system: ACHN renal
OVCAR-3 ovarian = system: OVCAR-3 ovarian
XF 498 CNS = system: XF 498 CNS
SNB-19 CNS = system: SNB-19 CNS
A498 renal = system: A498 renal
CCRF-CEM leukemia = system: CCRF-CEM leukemia
LXFL 529 NSCLC = system: LXFL 529 NSCLC
SN12C renal = system: SN12C renal
SNB-78 CNS = system: SNB-78 CNS
COLO 205 colon = system: COLO 205 colon
IGROV1 ovarian = system: IGROV1 ovarian
HCC-2998 colon = system: HCC-2998 colon
NCI-H226 lung = system: NCI-H226 lung
SF-539 CNS = system: SF-539 CNS
RPMI-8226 leukemia = system: RPMI-8226 leukemia
SW-620 colon = system: SW-620 colon
UO-31 renal = system: UO-31 renal
HCT-116 colon = system: HCT-116 colon
SK-MEL-2 melanoma = system: SK-MEL-2 melanoma
SK-OV-3 ovarian = system: SK-OV-3 ovarian
SK-MEL-5 melanoma = system: SK-MEL-5 melanoma
M19-MEL melanoma = system: M19-MEL melanoma
HOP-62 NSCLC = system: HOP-62 NSCLC
HOP-18 NSCLC = system: HOP-18 NSCLC
HCT-15 colon = system: HCT-15 colon
CAKI-1 renal = system: CAKI-1 renal
OVCAR-4 ovarian = system: OVCAR-4 ovarian
KM12 colon = system: KM12 colon
NCI-H522 lung = system: NCI-H522 lung
RXF-631 renal = system: RXF-631 renal

CCCCCCNC(=O)CCN(C(=O)O)S(=O)(=O)c1ccc(NC(=O)c2ccccc2)cc1
TGI (TK-10 renal): > 100 µM | TGI (SF-268 CNS): > 100 µM | TGI (DLD-1 colon): 43.2 µM | TGI (786-0 renal): > 100 µM | TGI (KM20L2 colon): > 100 µM | TGI (SNB-75 CNS): > 100 µM | TGI (K-562 leukemia): > 71.1 µM | TGI (M14 melanoma): > 100 µM | TGI (U251 CNS): 42.3 µM | TGI (UACC-62 melanoma): > 77.7 µM | TGI (SK-MEL-28 melanoma): > 100 µM | TGI (EKVX NSCLC): > 100 µM | TGI (MALME-3M melanoma): > 100 µM | TGI (LOX IMVI melanoma): > 62.2 µM | TGI (OVCAR-8 ovarian): > 100 µM | TGI (UACC-257 melanoma): > 69.6 µM | TGI (DMS 114 small cell lung): > 53.1 µM | TGI (DMS 273 small cell lung): > 55.2 µM | TGI (HOP-92 NSCLC): > 100 µM | TGI (HT29 colon): > 100 µM | TGI (NCI-H23 lung): > 100 µM | TGI (A549 NSCLC): > 66.2 µM | TGI (RXF 393 renal): > 100 µM | TGI (SR leukemia): 53.8 µM | TGI (MOLT-4 leukemia): > 60.1 µM | TGI (OVCAR-5 ovarian): > 100 µM | TGI (SF-295 CNS): > 100 µM | TGI (NCI-H460 lung): > 62.2 µM | TGI (HL-60(TB) leukemia): > 64.2 µM | TGI (ACHN renal): > 100 µM | TGI (OVCAR-3 ovarian): > 100 µM | TGI (XF 498 CNS): > 100 µM | TGI (SNB-19 CNS): > 100 µM | TGI (A498 renal): > 100 µM | TGI (CCRF-CEM leukemia): 52.3 µM | TGI (LXFL 529 NSCLC): > 100 µM | TGI (SN12C renal): > 100 µM | TGI (SNB-78 CNS): > 100 µM | TGI (COLO 205 colon): > 59.8 µM | TGI (IGROV1 ovarian): > 100 µM | TGI (HCC-2998 colon): > 100 µM | TGI (NCI-H226 lung): > 100 µM | TGI (SF-539 CNS): 38.4 µM | TGI (RPMI-8226 leukemia): 54.4 µM | TGI (SW-620 colon): 30.6 µM | TGI (UO-31 renal): > 100 µM | TGI (HCT-116 colon): > 59.5 µM | TGI (SK-MEL-2 melanoma): > 100 µM | TGI (SK-OV-3 ovarian): > 100 µM | TGI (SK-MEL-5 melanoma): > 100 µM | TGI (M19-MEL melanoma): > 81.6 µM | TGI (HOP-62 NSCLC): > 100 µM | TGI (HOP-18 NSCLC): > 100 µM | TGI (HCT-15 colon): > 58.4 µM | TGI (CAKI-1 renal): > 100 µM | TGI (OVCAR-4 ovarian): > 100 µM | TGI (KM12 colon): > 100 µM | TGI (NCI-H522 lung): > 100 µM

CCOC(=O)C(=O)CC(=O)C(Br)C(Br)c1ccc(Cl)cc1 (centres undefined)
TGI (TK-10 renal): > 100 µM | TGI (SF-268 CNS): > 100 µM | TGI (DLD-1 colon): 43.1 µM | TGI (786-0 renal): 34 µM | TGI (KM20L2 colon): > 100 µM | TGI (SNB-75 CNS): > 100 µM | TGI (K-562 leukemia): 40.8 µM | TGI (M14 melanoma): 50.7 µM | TGI (UACC-62 melanoma): > 100 µM | TGI (SK-MEL-28 melanoma): 72.3 µM | TGI (EKVX NSCLC): > 100 µM | TGI (MALME-3M melanoma): > 100 µM | TGI (LOX IMVI melanoma): 78.1 µM | TGI (OVCAR-8 ovarian): > 100 µM | TGI (UACC-257 melanoma): 90.1 µM | TGI (DMS 114 small cell lung): > 100 µM | TGI (DMS 273 small cell lung): > 100 µM | TGI (HOP-92 NSCLC): 59.6 µM | TGI (HT29 colon): 34.7 µM | TGI (NCI-H23 lung): 96.1 µM | TGI (A549 NSCLC): > 100 µM | TGI (RXF 393 renal): 62.6 µM | TGI (MOLT-4 leukemia): 53 µM | TGI (OVCAR-5 ovarian): > 100 µM | TGI (SF-295 CNS): > 100 µM | TGI (NCI-H460 lung): > 100 µM | TGI (HL-60(TB) leukemia): 42 µM | TGI (ACHN renal): > 100 µM | TGI (OVCAR-3 ovarian): 87.8 µM | TGI (SNB-19 CNS): 64.6 µM | TGI (CCRF-CEM leukemia): 29.3 µM | TGI (LXFL 529 NSCLC): 31.9 µM | TGI (SN12C renal): > 100 µM | TGI (SNB-78 CNS): > 100 µM | TGI (COLO 205 colon): 53.5 µM | TGI (IGROV1 ovarian): > 100 µM | TGI (HCC-2998 colon): > 100 µM | TGI (RXF-631 renal): > 100 µM | TGI (RPMI-8226 leukemia): 51.8 µM | TGI (SW-620 colon): > 100 µM | TGI (UO-31 renal): > 100 µM | TGI (SK-MEL-2 melanoma): > 100 µM | TGI (SK-OV-3 ovarian): > 100 µM | TGI (SK-MEL-5 melanoma): > 100 µM | TGI (M19-MEL melanoma): 52.4 µM | TGI (HOP-62 NSCLC): > 100 µM | TGI (HCT-15 colon): > 100 µM | TGI (CAKI-1 renal): > 100 µM | TGI (OVCAR-4 ovarian): > 100 µM | TGI (KM12 colon): > 100 µM | TGI (NCI-H522 lung): 45.7 µM
